Assay results reported in PubChem BioAssay (NCI).
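Growth conditions: 96-well plates. Treatment: test compound, 48 hours, 5 concentrations. Analysis: linear interpolation between bracketing concentrations; unreached endpoints set to highest concentration. GI50 = concentration required for 50% inhibition of growth. TGI denotes the concentration required for complete inhibition of growth.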

Tests used:
Assay in all cases: NCI tumour cell line growth inhibition, 48 h
[1] = tested on: SNB-75 CNS
[2] = tested on: HOP-62 NSCLC
[3] = tested on: RPMI-8226 leukemia
[4] = tested on: OVCAR-3 ovarian
[5] = tested on: BT-549 breast
[6] = tested on: A498 renal
[7] = tested on: CAKI-1 renal
[8] = tested on: SNB-19 CNS
[9] = tested on: M14 melanoma
[10] = tested on: HCT-15 colon
[11] = tested on: TK-10 renal
[12] = tested on: SR leukemia
[13] = tested on: SF-268 CNS
[14] = tested on: NCI-H23 lung
[15] = tested on: UACC-62 melanoma
[16] = tested on: SN12C renal
[17] = tested on: UACC-257 melanoma
[18] = tested on: ACHN renal
[19] = tested on: COLO 205 colon
[20] = tested on: PC-3 prostate
[21] = tested on: KM12 colon
[22] = tested on: UO-31 renal
[23] = tested on: HCT-116 colon
[24] = tested on: SF-539 CNS
[25] = tested on: SK-MEL-2 melanoma
[26] = tested on: LOX IMVI melanoma
[27] = tested on: T-47D breast
[28] = tested on: 786-0 renal
[29] = tested on: SW-620 colon
[30] = tested on: HT29 colon
[31] = tested on: U251 CNS
[32] = tested on: OVCAR-8 ovarian
[33] = tested on: RXF 393 renal
[34] = tested on: NCI-H460 lung
[35] = tested on: NCI-H226 lung
[36] = tested on: SK-MEL-5 melanoma
[37] = tested on: SK-OV-3 ovarian
[38] = tested on: HS 578T breast
[39] = tested on: SF-295 CNS
[40] = tested on: CCRF-CEM leukemia
[41] = tested on: MOLT-4 leukemia
[42] = tested on: MALME-3M melanoma
[43] = tested on: SK-MEL-28 melanoma
[44] = tested on: EKVX NSCLC
[45] = tested on: MCF7 breast
[46] = tested on: K-562 leukemia
[47] = tested on: MDA-MB-231 breast
[48] = tested on: A549 NSCLC
[49] = tested on: HCC-2998 colon
[50] = tested on: HOP-92 NSCLC
[51] = tested on: IGROV1 ovarian
[52] = tested on: NCI/ADR-RES ovarian
[53] = tested on: MDA-MB-435
[54] = tested on: HL-60(TB) leukemia
[55] = tested on: NCI-H522 lung
[56] = tested on: OVCAR-5 ovarian
[57] = tested on: DU-145 prostate
[58] = tested on: OVCAR-4 ovarian
[59] = tested on: MDA-N

Cc1ccc(C(=NN=C(N)N)c2ccc(C)cc2)cc1
GI50 [1]: 0.845 µM
TGI [1]: 16.7 µM
GI50 [2]: 1.21 µM
TGI [2]: 12.5 µM
GI50 [3]: 1.07 µM
TGI [3]: 4.87 µM
GI50 [4]: 0.24 µM
TGI [4]: 0.568 µM
GI50 [5]: 2.21 µM
TGI [5]: 8.69 µM
GI50 [6]: 0.395 µM
TGI [6]: 2.61 µM
GI50 [7]: 0.608 µM
TGI [7]: 5.93 µM
GI50 [8]: 2.23 µM
TGI [8]: 18.4 µM
GI50 [9]: 0.415 µM
TGI [9]: 2.15 µM
GI50 [10]: 0.773 µM
TGI [10]: 8.86 µM
GI50 [11]: 0.876 µM
TGI [11]: 11.4 µM
GI50 [12]: 0.235 µM
TGI [12]: 1.69 µM
GI50 [13]: 0.636 µM
TGI [13]: 6.57 µM
GI50 [14]: 0.98 µM
TGI [14]: 8.66 µM
GI50 [15]: 0.902 µM
TGI [15]: 6.04 µM
GI50 [16]: 1.07 µM
TGI [16]: 11.6 µM
GI50 [17]: 0.498 µM
TGI [17]: 2.07 µM
GI50 [18]: 1.1 µM
TGI [18]: 7.4 µM
GI50 [19]: 0.445 µM
TGI [19]: 1.41 µM
GI50 [20]: 0.457 µM
TGI [20]: 10.5 µM
GI50 [21]: 0.327 µM
TGI [21]: 1.33 µM
GI50 [22]: 1.73 µM
TGI [22]: 9.76 µM
GI50 [23]: 0.372 µM
TGI [23]: 4.48 µM
GI50 [24]: 2.1 µM
TGI [24]: 6.99 µM
GI50 [25]: 0.78 µM
TGI [25]: 2.94 µM
GI50 [26]: 0.587 µM
TGI [26]: 3.38 µM
GI50 [27]: 0.869 µM
TGI [27]: 10.9 µM
GI50 [28]: 0.623 µM
TGI [28]: 2.86 µM
GI50 [29]: 0.379 µM
TGI [29]: 1.66 µM
GI50 [30]: 0.316 µM
TGI [30]: 1.17 µM
GI50 [31]: 0.399 µM
TGI [31]: 1.83 µM
GI50 [32]: 0.773 µM
TGI [32]: 3.59 µM
GI50 [33]: 0.509 µM
TGI [33]: 1.73 µM
GI50 [34]: 0.359 µM
TGI [34]: 1.33 µM
GI50 [35]: 1.69 µM
TGI [35]: 10.9 µM
GI50 [36]: 0.427 µM
TGI [36]: 1.5 µM
GI50 [37]: 1.16 µM
TGI [37]: 10.2 µM
GI50 [38]: 0.424 µM
TGI [38]: 3.69 µM
GI50 [39]: 0.284 µM
TGI [39]: 0.945 µM
GI50 [40]: 0.559 µM
TGI [40]: 12.2 µM
GI50 [41]: 0.52 µM
TGI [41]: 4.45 µM
GI50 [42]: 0.388 µM
TGI [42]: 1.91 µM
GI50 [43]: 2.2 µM
TGI [43]: 6.7 µM
GI50 [44]: 0.7 µM
TGI [44]: 16.6 µM
GI50 [45]: 0.396 µM
TGI [45]: 8.53 µM
GI50 [46]: 0.271 µM
TGI [46]: 1.55 µM
GI50 [47]: 0.926 µM
TGI [47]: 4.36 µM
GI50 [48]: 0.451 µM
TGI [48]: 7.09 µM
GI50 [49]: 0.683 µM
TGI [49]: 1.93 µM
GI50 [50]: 0.99 µM
TGI [50]: 5.96 µM
GI50 [51]: 0.644 µM
TGI [51]: 7.64 µM
GI50 [52]: 1.85 µM
TGI [52]: 5.59 µM
GI50 [53]: 0.199 µM
TGI [53]: 0.471 µM
GI50 [54]: 0.214 µM
TGI [54]: 0.685 µM
GI50 [55]: 0.335 µM
TGI [55]: 1.19 µM
GI50 [56]: 1.85 µM
TGI [56]: 13.8 µM
GI50 [57]: 0.313 µM
TGI [57]: 1.16 µM
GI50 [58]: 1.7 µM
TGI [58]: 13.8 µM

N#Cc1ccc(NC(=NCC(=O)O)Nc2cccc3ccccc23)cc1
TGI [1]: > 10 µM
TGI [2]: > 10 µM
TGI [3]: > 10 µM
TGI [7]: > 10 µM
TGI [9]: > 10 µM
TGI [10]: > 10 µM
TGI [11]: > 10 µM
TGI [12]: > 10 µM
TGI [13]: > 10 µM
TGI [14]: > 10 µM
TGI [15]: > 10 µM
TGI [16]: > 10 µM
TGI [17]: > 10 µM
TGI [19]: > 10 µM
TGI [20]: > 10 µM
TGI [21]: > 10 µM
TGI [27]: > 10 µM
TGI [28]: > 10 µM
TGI [29]: > 10 µM
TGI [30]: > 10 µM
TGI [32]: > 10 µM
TGI [33]: > 10 µM
TGI [36]: > 10 µM
TGI [37]: > 10 µM
TGI [39]: > 10 µM
TGI [40]: > 10 µM
TGI [41]: > 10 µM
TGI [42]: > 10 µM
TGI [43]: > 10 µM
TGI [44]: > 10 µM
TGI [45]: > 10 µM
TGI [46]: > 10 µM
TGI [47]: > 10 µM
TGI [48]: > 10 µM
TGI [49]: > 10 µM
TGI [51]: > 10 µM
TGI [59]: > 10 µM
TGI [54]: > 10 µM
TGI [57]: > 10 µM

Cc1ccc(-c2c(C#N)c(-c3ccccc3)n(NS(=O)(=O)c3ccc(C)cc3)c(=O)c2C#N)cc1
TGI [1]: > 100 µM
TGI [2]: > 100 µM
TGI [3]: 31.6 µM
TGI [5]: > 100 µM
TGI [6]: > 100 µM
TGI [7]: > 100 µM
TGI [8]: > 100 µM
TGI [9]: > 100 µM
TGI [10]: > 100 µM
TGI [11]: > 100 µM
TGI [13]: > 100 µM
TGI [15]: > 100 µM
TGI [16]: > 100 µM
TGI [17]: > 100 µM
TGI [18]: > 100 µM
TGI [19]: > 100 µM
TGI [20]: > 100 µM
TGI [21]: > 100 µM
TGI [23]: > 100 µM
TGI [24]: > 100 µM
TGI [25]: > 100 µM
TGI [26]: > 100 µM
TGI [28]: > 100 µM
TGI [29]: > 100 µM
TGI [30]: > 100 µM
TGI [31]: > 100 µM
TGI [32]: > 100 µM
TGI [33]: > 100 µM
TGI [34]: > 100 µM
TGI [35]: > 100 µM
TGI [36]: 62.5 µM
TGI [37]: > 100 µM
TGI [39]: > 100 µM
TGI [40]: 80.3 µM
TGI [41]: 54.5 µM
TGI [42]: > 100 µM
TGI [43]: > 100 µM
TGI [44]: > 100 µM
TGI [45]: > 100 µM
TGI [46]: > 100 µM
TGI [47]: > 100 µM
TGI [48]: > 100 µM
TGI [49]: > 100 µM
TGI [50]: > 100 µM
TGI [51]: > 100 µM
TGI [52]: > 100 µM
TGI [59]: > 100 µM
TGI [53]: > 100 µM
TGI [55]: > 100 µM
TGI [56]: > 100 µM
TGI [58]: > 100 µM
